Measurements from patent US20100297256A1, “METHODS AND COMPOSITIONS FOR INHIBITING INTEGRINS USING TELLURIUM-CONTAINING COMPOUNDS” (priority 2007, published 2010).

What was measured:
FAK = assay: Western blot analysis of FAK phosphorylation; format: cell-based, murine
Protocol: Cell lysates (20 μg) were diluted with an equal volume of 2×SDS (sodium dodecyl sulfate) sample buffer and separated according to size by SDS-PAGE (SDS-polyacrylamide gel electrophoresis). Proteins were transferred to a polyvinylidene difluoride membrane via electroelution by a transfer system (Bio-Rad), blocked for 1 hour by blocking buffer (5% skim milk in PBS with 0.05% Tween 20) and incubated for 2 hours in room temperature or for overnight in 4° C. with primary antibodies diluted in blocking buffer. Membranes were washed several times in PBS with 0.05 Tween (PBS-T) and incubated for 1 hour with horseradish peroxidase-conjugated anti-mouse or anti-rabbit antibodies (diluted 1:10,000). Proteins were detected by ECL Western Blotting Detection Reagents according to the instructions of the manufacturer (PIERCE).

αVβ3 integrin = molecular target: T1, αVβ3 integrin (Homo sapiens, UniProt P05106+P06756); assay: ELISA-integrin; format: binding; conditions: 0.5-10 μg/ml
T1 construct: purchased Chemicon
Protocol: Plates coated with C16 or fibronectin were blocked with 10% BSA for 1 hour and washed with PBS. 20 ng/well of integrin with or without AS101/SAS was applied on fibronectin or 2 ng C16 coated well and incubated for 1.5 hours at 37° C. The wells were thereafter washed with PBS-T and mouse anti-integrin was added thereto for 1 hour at 37° C. Cells were then washed again and anti-mouse-horseradish peroxidase was added for another 1 hour at 37° C. Finally, cells were washed, TBM-substrate was added for color development, and absorption was read at 595 nm. Data presented as ±SE, bar *=p<0.005, evaluated by T-test.

HUVEC endothelial cells = assay: Tube formation assay, HUVEC; format: cell-based; conditions: HUVEC on Matrigel, 3 hours
Protocol: Plates (48 wells) were coated with 150 μl of Matrigel and incubated at 37° C. for 1 hour to promote gelling. Svec4-10 or HUVEC cells (40,000 cells) in 0.5 ml of serum-free DMEM with varying concentration of AS101 or SAS were added to each well. For positive control, ECGS was added at a concentration of 50 μg/ml. All samples were performed in sextuplicate. After 3 hours incubation, the plates were fixed with methanol and stained with crystal violet. Randomly chosen fields were photographed and density of tube formation was analyzed by imageJ.

aortic arches = assay: Chick aortic arch assay; format: cell-based; conditions: for vessel length and number, sprouting induced by ECGS / length of tubes exiting from arches / number of tubes exiting from arches: 0.5-5 μg/ml; for vessel length and number, sprouting induced by ECGS: 100 μg/ml ECGS; for length of tubes exiting from arches / number of tubes exiting from arches: without ECGS; for toxicity in aortic arch assay (re-sprouting after washing): data not shown
Protocol: Aortic arches were removed from fertilized chicken eggs at day 13 of embryonic development. The eggs were cracked into a sterile 100 mm culture dish. The embryo was removed from its surroundings by cutting away the associated membranes and yolk sac. The chicken embryo was placed ventral side up to surgically expose the heart and aortic arches. The heart and aortic arch were removed and placed into a sterile culture dish containing PBS to which 1% penicillin-streptomycin was added. Arches, from which the surrounding adventitia had been removed, were cut into 0.8 mm sections. Each arch was placed onto drop of Matrigel that was deposited on the bottom of a 48-well culture plate just prior to adding the ring. An additional drop of ice-cold Matrigel was spread on each aortic arch. Matrigel was allowed to solidify before adding 500 μl of human endothelial-SFM basal growth medium. […] Quantitative evaluation of tubule formation was performed by a blinded observer on a scale of 1-3 (least to maximum sprouting).

C57B1/6N female mice = assay: Mouse plug in vivo migration and angiogenesis assay; conditions: 20 μg/mouse s.c. daily, 10 days, ECGS 500 μg/ml in Matrigel
Protocol: Matrigel was mixed with ECGS (500 μg/ml) and injected subcutaneously into C57B1/6N female mice on the ventral surface of the animal. During 10 days, every day, AS101 or SAS (20 μg/mouse in Matrigel) were injected subcutaneously. After 10 days, the plugs were removed with some surrounding tissue, fixed in 10% formalin, and paraffin-embedded. Sections were deparaffinized, and stained with hematoxylin and eosin dyes. In the most positive regions, stained cells were counted by a blinded observer. In each treatment group there were 5-6 mice, and the experiment was performed twice. Images from the sections were captured using a 10× objective of an Olympus microscope.

SVEC4-10 cells = assay: Boyden chamber migration assay; format: cell-based, murine; conditions: 6 hours
Protocol: Migration assay was performed in a 48-well microchemotaxis chamber. Polyester membranes with 8 μm pores were coated with 0.1 mg/ml of collagen I in DMEM and then dried for 1 hour. B16F10 and Svec4-10 cells were harvested using TE and resuspended in DMEM containing 0.1% BSA. The bottom chamber was loaded with Svec4-10 supernatant/DMEM (1:5) containing varying concentration of AS101 or SAS and the filter was laid over the treatment solutions. Non-diluted Svec4-10 supernatant was used as a positive control. The upper wells were then loaded with 30,000 cells, the chamber was incubated at 37° C. for 6 hours and the filters were fixed and stained using Diff-Quick. The cells that migrated through the filter were quantified by counting the center of each well in a 36-box grid at ×20 using an Olympic CK2 microscope. Each condition was studied in triplicate wells, and each experiment was performed three times.

integrin α subunits = assay: Multiple anti-integrin antibody binding assay, α subunits; format: cell-based; conditions: SVEC cells
Protocol: The specificity of tellurium-containing compounds to integrins was tested by examining the effect of AS101 and SAS on the attachment of SVEC cells to specific anti-integrin antibodies. Commercially available kits (R&D Biosystems) with anti-integrin coated wells were used, and attachment was determined according to the manufacturer's instructions.

West Nile Virus (WNV) = assay: WNV yield assay; format: cell-based; conditions: Vero cells, 5 μg/ml 1 hour before inoculation
Protocol: Vero cells were seeded as described above in 96-well plates. Cells were treated with AS101 and infected with WNV at MOI of 5 PFU/cell. The cells were washed six times with PBS, and fresh medium was added. The virus titer in harvested culture supernatants was determined by a microtitration assay as follows [Colley et al., in Colgan et al., Current Protocols in Immunology, John Wiley & Sons, New York, N.Y., 2003]: 10-fold serial dilutions of supernatants were used to infect Vero cells in 96-well plates. […] Viral titers (expressed as log 10 of TCID50/ml) were calculated according to the Spearman-Karber method [Hierholzer and Killington, in Mahy and Kangro, Virology Methods Manual, Academic Press, San Diego, Calif., 1996].

Bcl2 = assay: Western blot analysis of Bcl2; format: cell-based, human; conditions: AS101 added to ARA-C
Source text: The expression of the survival factor Bcl2 was examined via Western blot analysis in U937 cells treated with the chemotherapeutic agent ARA-C.

[1] = B16F10, 5 to 10 minutes incubation
[2] = LAN-1, 5 to 10 minutes incubation
[3] = SVEC4-10, 5 to 10 minutes incubation

T1 sequence (P06756 31-889 limits assumed): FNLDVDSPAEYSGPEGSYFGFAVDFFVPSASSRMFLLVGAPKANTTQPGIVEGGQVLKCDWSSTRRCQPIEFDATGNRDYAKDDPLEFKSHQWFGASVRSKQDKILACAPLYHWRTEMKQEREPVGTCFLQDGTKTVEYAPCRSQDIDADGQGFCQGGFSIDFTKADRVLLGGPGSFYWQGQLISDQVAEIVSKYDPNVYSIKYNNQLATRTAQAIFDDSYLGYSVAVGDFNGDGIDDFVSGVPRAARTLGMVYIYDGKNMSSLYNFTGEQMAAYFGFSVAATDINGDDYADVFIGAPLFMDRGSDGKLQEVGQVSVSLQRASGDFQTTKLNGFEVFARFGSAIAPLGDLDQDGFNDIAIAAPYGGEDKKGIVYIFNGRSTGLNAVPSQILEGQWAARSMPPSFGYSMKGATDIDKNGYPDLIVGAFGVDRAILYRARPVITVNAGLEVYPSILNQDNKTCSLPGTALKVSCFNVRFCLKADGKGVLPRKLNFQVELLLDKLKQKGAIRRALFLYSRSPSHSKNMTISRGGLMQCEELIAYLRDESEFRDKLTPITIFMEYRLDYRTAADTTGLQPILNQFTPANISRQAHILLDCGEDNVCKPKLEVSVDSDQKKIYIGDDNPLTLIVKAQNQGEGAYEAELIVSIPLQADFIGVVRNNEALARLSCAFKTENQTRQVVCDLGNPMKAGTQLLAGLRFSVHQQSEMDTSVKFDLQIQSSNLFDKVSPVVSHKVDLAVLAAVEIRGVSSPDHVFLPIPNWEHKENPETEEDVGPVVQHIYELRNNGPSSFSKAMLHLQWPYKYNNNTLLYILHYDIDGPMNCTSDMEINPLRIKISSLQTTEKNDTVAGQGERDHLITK
T1 sequence (P06756 891-1048 limits assumed): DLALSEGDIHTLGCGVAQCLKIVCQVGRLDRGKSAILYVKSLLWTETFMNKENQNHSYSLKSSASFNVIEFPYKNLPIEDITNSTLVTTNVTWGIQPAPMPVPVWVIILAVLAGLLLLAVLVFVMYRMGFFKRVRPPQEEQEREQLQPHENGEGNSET
T1 sequence (P05106 27-788): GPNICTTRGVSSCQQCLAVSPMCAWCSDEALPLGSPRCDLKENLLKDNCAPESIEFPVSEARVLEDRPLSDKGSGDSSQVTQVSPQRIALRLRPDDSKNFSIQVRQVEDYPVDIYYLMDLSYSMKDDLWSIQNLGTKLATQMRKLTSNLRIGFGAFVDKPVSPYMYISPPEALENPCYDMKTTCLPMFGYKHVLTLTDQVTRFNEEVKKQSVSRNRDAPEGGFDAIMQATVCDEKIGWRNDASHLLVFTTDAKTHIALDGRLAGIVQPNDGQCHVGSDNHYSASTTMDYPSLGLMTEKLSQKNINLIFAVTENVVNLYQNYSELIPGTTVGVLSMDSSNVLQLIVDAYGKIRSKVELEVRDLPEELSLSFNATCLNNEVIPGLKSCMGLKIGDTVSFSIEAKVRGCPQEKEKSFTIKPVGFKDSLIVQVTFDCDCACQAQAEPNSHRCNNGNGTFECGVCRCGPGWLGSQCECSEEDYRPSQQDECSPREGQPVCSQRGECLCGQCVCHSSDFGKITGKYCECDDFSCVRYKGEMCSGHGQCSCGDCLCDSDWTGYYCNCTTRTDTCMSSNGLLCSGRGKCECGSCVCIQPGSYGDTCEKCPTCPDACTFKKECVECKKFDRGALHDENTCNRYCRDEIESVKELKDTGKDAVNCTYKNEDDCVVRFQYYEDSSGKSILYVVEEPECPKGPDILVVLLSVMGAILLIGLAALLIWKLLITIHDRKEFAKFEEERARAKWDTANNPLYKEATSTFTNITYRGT

SMILES | ECGS-induced FAK phosphorylation at Y397 (FAK; [1]) | ECGS-induced FAK phosphorylation at Y397 (FAK; [2]) | ECGS-induced FAK phosphorylation at Y397 (FAK; [3]) | C16 peptide binding to αVβ3 integrin (αVβ3 integrin) | fibronectin binding to αVβ3 integrin (αVβ3 integrin) | number of tubes formed (HUVEC endothelial cells) | vessel length and number, sprouting induced by ECGS (aortic arches) | length of tubes exiting from arches (aortic arches) | number of tubes exiting from arches (aortic arches) | toxicity in aortic arch assay (re-sprouting after washing) (aortic arches) | endothelial cell invasion and migration into Matrigel plug (angiogenesis) (C57B1/6N female mice) | directional migration of murine endothelial cells through the membrane (SVEC4-10 cells) | cell attachment to antibodies against integrin α subunits (integrin α subunits) | decrease in virus yield (West Nile Virus (WNV); 24 hours post-infection) | decrease in virus yield (West Nile Virus (WNV); 36 hours post-infection) | expression of Bcl2 (Bcl2; U937 on BSA) | expression of Bcl2 (Bcl2; U937 on fibronectin)
O=C1O[Te]23OC(=O)C(O2)C2O[Te]4(OC(=O)C(O4)C1O3)OC2=O [SAS, [TeO4(COCH)2]2] | inhibition of ECGS-induced FAK phosphorylation at Y397 | inhibition of ECGS-induced FAK phosphorylation at Y397 | inhibition of ECGS-induced FAK phosphorylation at Y397 | block | block | reduced the number of tubes formed | inhibit the vessel length and number | reduced their length | did not inhibit the number of tubes exiting from arches | non-toxic | inhibit endothelial cell invasion and migration | inhibited the directional migration | little if any inhibition |  |  |  | 
Cl[TeH]1(Cl)(Cl)OCCO1 [AS101, ammonium trichloro(dioxyethylene-O,O′)tellurate] | inhibition of ECGS-induced FAK phosphorylation at Y397 | inhibition of ECGS-induced FAK phosphorylation at Y397 | inhibition of ECGS-induced FAK phosphorylation at Y397 | block | block | reduced the number of tubes formed | inhibit the vessel length and number | reduced their length | did not inhibit the number of tubes exiting from arches | non-toxic | inhibit endothelial cell invasion and migration | inhibited the directional migration | little if any inhibition | 1 log | 2 log | no effect | did not decrease expression of Bcl2 in cells plated on fibronectin (FN) unless AS101 was added
